Measurements as given in patent publication US7601846B2, “Compounds having activity as inhibitors of apoptosis” (The Regents of the University of California, priority 2001, dated 2009).
Counter-ions that a name gives are not always drawn. Like-named read-outs stand apart in the source and are kept apart here.

Tests used:
Murine thymocytes = assay: Dexamethasone-induced thymocyte apoptosis assay (DiOC6/PI staining, flow cytometry); format: cell-based; conditions: Mus musculus, 6 hours; for viability at 10 µM: compound 10 μM; for viability at 10 µM / viability at 5 µM: challenged with DEX, control 72 ± 4, DEX alone 36 ± 7, read-out: Average cell survival (%) Average alive cells (%); for viability at 5 µM: compound tested at 5 μM (footnote b); for EC50: 5 μM dexamethasone
Experimental: All of the compounds were screened in the thymocyte assay for cytotoxicity and their ability to prevent dexamethasone-induced cell death. Murine thymocytes were exposed to 10 μM or 5 μM of each compound in the presence or absence of DEX for six hours and then assayed for their in vitro viability by 3,3′-dihexyloxacarbocyanine iodide (DiOC6) and propidium iodide (PI) staining, and flow cytometry. When cell death signals converge on the mitochondria, there is a loss of the inner mitochondrial membrane potential and cells can no longer retain the dye DiOC6 as an indicator of apoptosis. Once cells lose the integrity of the outer cell membrane, then the dye propidium iodide is no longer excluded from these cells. The percentage of viable cells, which retained DiOC6 and excluded PI was compared to cells treated with DEX alone.
Apoptosis assays. Thymocytes were harvested from young C57B1/6 mice and cultured at 37° C. in 5% CO2 in RPMI 1640 containing 10% FBS, 1% Penicillin/Streptomycin (Gibco BRL, Rockville, Md.). Thymocytes were plated at a density of 10^7 cells/mL and pre-incubated with 5-10 μM of each compound (from 10 mM stock in DMSO) for 30 minutes before induction of apoptosis. Apoptosis was induced with 5 μM dexamethasone or by exposure to 6 Gy gamma radiation. After 6 hours, cell apoptosis was assayed by propidium iodide (PI) and 3,3′ dihexyloxacarbocyanine iodide (DiOC6) staining. The cells were removed from the plate and incubated for 30 minutes in medium with 40 nM DiOC6 and 5 μg/mL PI and then analyzed by flow cytometry in a FACS caliber (Beckton-Dickinson, San Jose, Calif.). Viable cells had high DiOC6 (FL-1) and low PI (FL-3), whereas apoptotic cells had low DiOC6 (FL-1) and low PI (FL-3). To evaluate the EC50s the thymocytes were pre-exposed to graded concentrations of selected compounds for 30 minutes and then apoptosis was induced with 5 μM dexamethasone. After 6 hours the cells were harvested and stained as above.
The concentration (EC50) of each compound that inhibited dexamethasone-induced cell death by 50% was determined by nonlinear regression fitting of the data to a one-site model. Pseudo Hill slopes were determined by nonlinear regression fit of the data to a sigmoidal dose-response equation (variable slope): % viability=minimum % viability+(maximum−minimum % viability)/[1+10(log EC50−X)^n], where X is the logarithm of inhibitor concentration, and n is the pseudo Hill slope and the maximum and minimum % viability were experimentally determined after dexamethasone exposure and drug treatment. EC50 values and 95% confidence intervals (CI) were derived from the sigmoid fits to the percent control transformed data shown using GraphPad Prism version 4.0b for Macintosh (GraphPad Software, San Diego, Calif.).

[1] = tested on: Bax, PUMA, noxa, DR5 (killer) mRNA; assay: Modulation of proapoptotic genes by real time PCR in DEX-treated thymocytes; format: cell-based, mouse
Experimental: Four proapoptotic genes were tested by real time PCR. […] PUMA and noxa belong to the BH3-only protein subclass while Bax is a multidomain member of the family. DR5 (also called killer) is an apoptosis-inducing membrane receptor for tumor necrosis factor-related apoptosis-inducing ligand (also called TRAIL and Apo2 ligand). DR5 is a transcriptional target of p53, and its over expression induces cell death in vitro (Finnberg et al., Molecular and Cellular Biology 2005, 25, 2000-2013).

PUMA = PUMA protein expression in DEX-treated thymocytes (western blot); format: cell-based, mouse; conditions: thymocytes pretreated with 10 μM compound, 5 μM dexamethasone 6 hours, FIG. 6
Experimental: Thymocytes were pretreated with 10 μM of the indicated compounds and then exposed to 5 μM of dexamethasone for 6 hours. The cytosolic proteins were fractionated and then separated on a 4-12% gradient gel by SDS-PAGE and transferred to a PDVF membrane, which was probed with antibodies to PUMA and actin.
After removal of medium, cells were disrupted in lysis buffer (10 mM HEPES pH 7.9, 10 mM KCl, 0.1 mM EDTA, 0.1 mM EGTA, 1 mM dithiothreitol, 0.5 mM phenylmethylsulfonyl fluoride, and 0.6% NP-40) on ice. The nuclei were separated by centrifugation and the cytoplasmic sample removed. The nuclear pellets were resuspended in (20 mM HEPES pH 7.9, 0.4 M NaCl, 1.0 mM EDTA, 1.0 mM EGTA, 1 mM dithiothreitol, 0.1 mM phenylmethylsulfonyl fluoride) and the insoluble material was removed by centrifugation. The samples were heated to 70° C. for 10 minutes in loading buffer with 10 mM DTT. Each lane of an SDS-PAGE gel was loaded with 20 μg of protein. After electrophoresis, the proteins were transferred to a polyvinylidene difluoride (PVDF) membrane, blocked with 2% I-block™ (Tropix Inc, Bedford, Mass.) containing 0.05% Tween-20 in PBS, and then incubated with anti-PUMA (AbCam, Inc., Cambridge, Mass.). Horseradish peroxidase-conjugated anti-IgG (Santa Cruz Laboratories, Santa Cruz, Calif.) was used as the secondary antibody. […]

[2] = tested on: spontaneous apoptosis and fludarabine-induced apoptosis; assay: Protection against spontaneous and fludarabine-induced apoptosis (FIG. 2); format: cell-based
[3] = cited from earlier work
[4] = Table 2, 30 minutes pre-exposure, read-out: EDEC50 (μM) of compounds in thymocyte apoptosis assay (first value in cell) (converted)
[5] = Table 1, 30 minutes pre-exposure, read-out: EDEC50 (μM) of compounds in thymocyte apoptosis assay
[6] = mouse thymocytes treated with DEX, FIG. 5

Which viability at 10 µM (Murine thymocytes) does the source give for c1coc(-c2cn3c(n2)sc2ccccc23)c1 [Compound 3, 2-Furan-2-yl-imidazo[2,1-b]benzothiazole hydrobromide salt] here?
Its viability at 10 µM is 16%.

For Cc1ccc(-c2cn3c(n2)sc2cc(O)ccc23)cc1 [Compound 4, 2-p-Tolyl-benzo[d]imidazo[2,1-b]thiazol-7-ol], which viability at 5 µM (Murine thymocytes) is on record?
Its viability at 5 µM is 19%.

Which viability at 10 µM (Murine thymocytes) does the source give for Brc1ccc(-c2cn3c(n2)sc2ccccc23)cc1 [Compound 5] here?
The viability at 10 µM was 22%.

Which viability at 5 µM (Murine thymocytes) does the source give for Cc1ccc(-c2nc3sc4ccccc4n3c2Br)cc1 [Compound 6, 3-Bromo-2-p-tolyl-imidazo[2,1-b]benzothiazole] here?
The viability at 5 µM was 24%.

With Cc1ccc(-c2cn3c(n2)sc2cc(N)ccc23)cc1 [Compound 7, 2-p-Tolyl-imidazo[2,1-b]benzothiazol-7-ylamine] as the compound, how does the viability at 10 µM (Murine thymocytes) read?
The viability at 10 µM was 27%.

Which viability at 10 µM (Murine thymocytes) does the source give for c1ccc2c(c1)sc1nc(-c3ccc(C4CCCC4)cc3)cn12 [Compound 8, 2-(4-Cyclopentyl-phenyl)-imidzxo[2,1-b]benzothiazoles hydrobromide salt] here?
Its viability at 10 µM is 36%.

With Cc1ccc(-c2cn3c(n2)sc2cc(Br)ccc23)cc1 [Compound 9, 7-Bromo-2-p-tolylimidazo[2,1-b]benzothiazole hydrobromide salt] as the compound, how does the viability at 10 µM (Murine thymocytes) read?
Its viability at 10 µM is 39%.

With c1ccc(-c2ccc(-c3cn4c(n3)sc3ccccc34)cc2)cc1 [Compound 10] as the compound, how does the EC50 (Murine thymocytes; [4]) read?
Its EC50 is 8.12 µM.

And the viability at 10 µM (Murine thymocytes)?
Its viability at 10 µM is 59%.

With COc1ccc2c(c1)sc1nc(-c3ccc(C)cc3)cn12 [Compound 11, 7-Methoxy-2-p-tolyl-imidazo[2,1-b]benzothiazole hydrobromide salt] as the compound, how does the EC50 (Murine thymocytes; [5]) read?
Its EC50 is 4.44 µM.

What about the viability at 5 µM (Murine thymocytes) of the same compound?
The viability at 5 µM was 68%.

For c1ccc(-c2cn3c(n2)sc2ccccc23)cc1 [Compound 12], which EC50 (Murine thymocytes; [5]) is on record?
The EC50 was 10.2 µM.

What about the viability at 10 µM (Murine thymocytes) of the same compound?
The viability at 10 µM was 73%.

Which EC50 (Murine thymocytes; [4]) does the source give for Cc1ccc(-c2cn3c(n2)sc2ccccc23)cc1 [Compound 13] here?
The EC50 was 1.22 µM.

And the viability at 5 µM (Murine thymocytes)?
The viability at 5 µM was 73%.

What does the source list for c1ccc2cc(-c3ccc(-c4cn5c(n4)sc4ccccc45)cc3)ccc2c1 [Compound 14]?
EC50 (Murine thymocytes; [4]): 4.02 µM; viability at 5 µM (Murine thymocytes): 75%

For Br.c1ccc2c(c1)sc1nc(-c3ccc(N4CCCC4)cc3)cn12 [Compound 15, 2-(4-Pyrrolidin-1-yl-phenyl)-benzo[d]imidazo[2,1-b]thiazole hydrobromide salt], which “mRNA level of bax and killer relative to control” value [1, 6] is on record?
Its value is “below it”.

And the “mRNA level of proapoptotic genes (Bax, PUMA, noxa, DR5) relative to control” value [1, 6]?
The value was “close to that of the control”.

What about the “PUMA protein expression (western blot)” value (PUMA) of the same compound?
The value was “total inhibition”.

What about the EC50 (Murine thymocytes; [4]) of the same compound?
Its EC50 is 0.35 µM.

What about the viability at 5 µM (Murine thymocytes) of the same compound?
Its viability at 5 µM is 78%.

For C[C@@H]1C[C@H]2[C@@H]3CCC4=CC(=O)C=C[C@]4(C)[C@@]3(F)[C@@H](O)C[C@]2(C)[C@@]1(O)C(=O)CO [Dexamethasone, reference compound], which “Increase of PUMA mRNA upon treatment” value ([1]; mouse thymocytes, DEX treatment alone) is on record?
Its value is “over 9 fold”.

Which results are given for Cc1ccc(-c2cn3c4c(sc3n2)CCCC4)cc1 [IBT]?
Effect against fludarabine-induced apoptosis [2]: protective effect; Effect against spontaneous apoptosis [2]: protective effect

Which “PUMA protein expression (western blot)” value (PUMA) does the source give for Cc1ccc(C(=O)Cn2c3c(sc2=N)CCCC3)cc1 [PFT-α, 2-(2-imino-4,5,6,7-tetrahydro-benzothiazol-3-yl)-1-p-tolyl-ethanone hydrobromide, reference compound] here?
The value was “partial inhibition”.

And the “Stability under physiologic conditions” value [3]?
Its value is “not stable”.
